Patent publication EP3212201B1, “NUCLEOSIDE KINASE INHIBITORS” (BCI Pharma, priority 2014, dated 2016)

Columns and labels:
Test in all cases: FRET-based coupled-enzyme protein kinase inhibition assay
Format in all cases: biochemical
Conditions in all cases: compound at 10 µM, 1% DMSO
AURKA (Aurora A) = molecular target: T1, AURKA (Aurora A) (Homo sapiens, UniProt O14965)
T1 sequence (O14965 1-403): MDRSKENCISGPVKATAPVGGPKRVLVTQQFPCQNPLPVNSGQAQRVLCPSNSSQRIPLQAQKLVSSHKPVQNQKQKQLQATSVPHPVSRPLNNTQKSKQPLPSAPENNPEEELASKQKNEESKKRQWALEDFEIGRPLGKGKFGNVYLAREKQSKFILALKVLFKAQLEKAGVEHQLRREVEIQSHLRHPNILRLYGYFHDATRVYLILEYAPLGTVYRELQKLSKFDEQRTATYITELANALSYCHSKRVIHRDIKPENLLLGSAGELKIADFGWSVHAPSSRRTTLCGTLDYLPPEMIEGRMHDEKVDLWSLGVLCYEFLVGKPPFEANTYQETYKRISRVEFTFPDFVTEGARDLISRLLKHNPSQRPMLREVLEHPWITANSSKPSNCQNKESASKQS
Procedure, shortened: (§1)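 Inhibition was quantified ratiometrically, as coumarin over fluorescein emission following 400 nm excitation, on a doubly labeled peptide whose cleavage by development reagent requires it to remain unphosphorylated. Kinase reactions ran 60 min at room temperature with ATP at apparent Km.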

EGFR (ErbB1) = EGFR (ErbB1) (Homo sapiens, UniProt P00533)
Procedure, shortened: as §1

KIT = KIT (Homo sapiens, UniProt P10721)
Procedure, shortened: as §1

EPHA2 = EPHA2 (Homo sapiens, UniProt P29317)
Procedure, shortened: as §1

PIM1 = PIM1 (Homo sapiens, UniProt P11309)
Procedure, shortened: as §1

FLT3 = molecular target: T2, FLT3 (Homo sapiens, UniProt P36888)
T2 sequence (P36888 27-993): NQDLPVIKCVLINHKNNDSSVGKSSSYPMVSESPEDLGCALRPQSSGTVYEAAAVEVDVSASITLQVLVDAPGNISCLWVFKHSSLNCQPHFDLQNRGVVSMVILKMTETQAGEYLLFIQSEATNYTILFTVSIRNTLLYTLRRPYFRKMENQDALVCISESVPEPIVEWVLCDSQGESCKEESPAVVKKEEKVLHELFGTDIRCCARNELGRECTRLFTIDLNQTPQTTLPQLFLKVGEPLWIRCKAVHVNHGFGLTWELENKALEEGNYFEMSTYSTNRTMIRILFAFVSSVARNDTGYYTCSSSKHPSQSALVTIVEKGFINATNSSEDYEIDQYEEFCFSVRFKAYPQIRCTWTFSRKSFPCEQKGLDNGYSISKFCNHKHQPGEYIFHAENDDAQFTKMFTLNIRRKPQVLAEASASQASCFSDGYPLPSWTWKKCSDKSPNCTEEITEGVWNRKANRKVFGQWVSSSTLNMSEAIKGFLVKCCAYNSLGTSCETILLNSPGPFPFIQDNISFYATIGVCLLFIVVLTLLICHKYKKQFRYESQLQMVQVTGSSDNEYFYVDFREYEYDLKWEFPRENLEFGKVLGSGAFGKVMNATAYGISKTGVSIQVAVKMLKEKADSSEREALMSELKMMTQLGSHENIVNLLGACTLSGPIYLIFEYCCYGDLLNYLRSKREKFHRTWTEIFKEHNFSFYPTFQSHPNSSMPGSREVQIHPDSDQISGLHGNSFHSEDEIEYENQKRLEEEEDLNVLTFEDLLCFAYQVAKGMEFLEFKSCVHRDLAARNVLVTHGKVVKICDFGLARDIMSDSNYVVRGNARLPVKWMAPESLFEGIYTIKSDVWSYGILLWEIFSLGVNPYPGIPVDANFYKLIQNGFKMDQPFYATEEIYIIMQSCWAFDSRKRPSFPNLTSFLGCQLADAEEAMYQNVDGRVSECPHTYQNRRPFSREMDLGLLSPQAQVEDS
Procedure, shortened: as §1

INSR = INSR (Homo sapiens, UniProt P06213)
Procedure, shortened: as §1

Chain of KIT (P10721 26-976, species assumed): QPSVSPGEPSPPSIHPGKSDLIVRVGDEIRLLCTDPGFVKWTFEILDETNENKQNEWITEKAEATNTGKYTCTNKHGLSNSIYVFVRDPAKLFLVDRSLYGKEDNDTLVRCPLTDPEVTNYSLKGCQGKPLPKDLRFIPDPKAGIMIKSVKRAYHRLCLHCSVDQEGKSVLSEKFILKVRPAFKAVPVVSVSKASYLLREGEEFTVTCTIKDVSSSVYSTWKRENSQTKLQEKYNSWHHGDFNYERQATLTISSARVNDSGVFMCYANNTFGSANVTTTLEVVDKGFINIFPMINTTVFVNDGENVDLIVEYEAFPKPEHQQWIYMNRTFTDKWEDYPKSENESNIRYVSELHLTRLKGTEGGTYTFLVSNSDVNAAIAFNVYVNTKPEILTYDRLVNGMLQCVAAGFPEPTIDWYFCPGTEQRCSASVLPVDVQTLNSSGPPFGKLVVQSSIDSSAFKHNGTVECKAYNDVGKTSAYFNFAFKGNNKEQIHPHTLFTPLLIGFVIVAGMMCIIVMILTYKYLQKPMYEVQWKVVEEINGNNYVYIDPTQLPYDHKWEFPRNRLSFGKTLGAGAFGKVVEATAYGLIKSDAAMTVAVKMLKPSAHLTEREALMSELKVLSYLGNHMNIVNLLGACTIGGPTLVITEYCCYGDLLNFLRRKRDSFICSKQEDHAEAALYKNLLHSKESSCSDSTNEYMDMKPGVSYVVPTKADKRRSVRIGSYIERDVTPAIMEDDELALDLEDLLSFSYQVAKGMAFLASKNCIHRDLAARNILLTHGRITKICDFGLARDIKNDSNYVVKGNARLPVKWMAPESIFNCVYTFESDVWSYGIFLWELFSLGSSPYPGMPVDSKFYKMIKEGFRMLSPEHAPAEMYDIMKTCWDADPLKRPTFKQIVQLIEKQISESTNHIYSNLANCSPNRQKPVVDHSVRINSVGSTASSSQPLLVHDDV
Chain of EPHA2 (P29317 24-976, species assumed): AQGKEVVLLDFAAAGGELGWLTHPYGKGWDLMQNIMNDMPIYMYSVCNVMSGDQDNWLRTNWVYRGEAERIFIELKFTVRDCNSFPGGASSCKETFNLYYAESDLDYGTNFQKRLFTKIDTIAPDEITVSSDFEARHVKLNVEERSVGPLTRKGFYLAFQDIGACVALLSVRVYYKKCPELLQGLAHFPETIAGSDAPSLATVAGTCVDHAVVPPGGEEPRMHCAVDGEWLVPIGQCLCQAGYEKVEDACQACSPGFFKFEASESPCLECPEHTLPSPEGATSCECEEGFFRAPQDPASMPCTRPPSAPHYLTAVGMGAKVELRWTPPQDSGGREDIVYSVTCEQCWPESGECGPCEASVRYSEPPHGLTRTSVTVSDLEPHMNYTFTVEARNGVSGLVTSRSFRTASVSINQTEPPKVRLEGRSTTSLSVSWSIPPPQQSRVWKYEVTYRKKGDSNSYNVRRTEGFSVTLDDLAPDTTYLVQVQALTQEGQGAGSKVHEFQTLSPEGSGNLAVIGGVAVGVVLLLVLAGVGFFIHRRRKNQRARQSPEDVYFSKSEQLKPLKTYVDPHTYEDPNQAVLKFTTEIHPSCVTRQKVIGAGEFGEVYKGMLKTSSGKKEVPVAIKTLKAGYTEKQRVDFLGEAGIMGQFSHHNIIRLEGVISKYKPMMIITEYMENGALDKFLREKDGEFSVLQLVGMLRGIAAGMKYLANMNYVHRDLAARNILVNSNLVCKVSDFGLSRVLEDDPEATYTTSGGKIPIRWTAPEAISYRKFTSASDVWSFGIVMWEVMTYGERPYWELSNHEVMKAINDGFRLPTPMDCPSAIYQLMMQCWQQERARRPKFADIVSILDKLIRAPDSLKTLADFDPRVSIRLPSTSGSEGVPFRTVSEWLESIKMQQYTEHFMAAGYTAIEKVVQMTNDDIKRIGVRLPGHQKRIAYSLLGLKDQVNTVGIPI
Chain of PIM1 (P11309 whole entry, species assumed): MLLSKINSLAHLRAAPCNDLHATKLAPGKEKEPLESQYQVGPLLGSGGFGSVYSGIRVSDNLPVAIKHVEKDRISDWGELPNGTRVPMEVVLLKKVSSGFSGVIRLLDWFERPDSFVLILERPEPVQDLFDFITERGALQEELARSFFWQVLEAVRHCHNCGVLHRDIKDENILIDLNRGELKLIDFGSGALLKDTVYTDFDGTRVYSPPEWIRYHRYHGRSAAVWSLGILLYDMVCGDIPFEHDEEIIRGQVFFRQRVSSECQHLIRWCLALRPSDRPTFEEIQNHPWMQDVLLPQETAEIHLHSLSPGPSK
Chain of EGFR (ErbB1) (P00533 25-1210, species assumed): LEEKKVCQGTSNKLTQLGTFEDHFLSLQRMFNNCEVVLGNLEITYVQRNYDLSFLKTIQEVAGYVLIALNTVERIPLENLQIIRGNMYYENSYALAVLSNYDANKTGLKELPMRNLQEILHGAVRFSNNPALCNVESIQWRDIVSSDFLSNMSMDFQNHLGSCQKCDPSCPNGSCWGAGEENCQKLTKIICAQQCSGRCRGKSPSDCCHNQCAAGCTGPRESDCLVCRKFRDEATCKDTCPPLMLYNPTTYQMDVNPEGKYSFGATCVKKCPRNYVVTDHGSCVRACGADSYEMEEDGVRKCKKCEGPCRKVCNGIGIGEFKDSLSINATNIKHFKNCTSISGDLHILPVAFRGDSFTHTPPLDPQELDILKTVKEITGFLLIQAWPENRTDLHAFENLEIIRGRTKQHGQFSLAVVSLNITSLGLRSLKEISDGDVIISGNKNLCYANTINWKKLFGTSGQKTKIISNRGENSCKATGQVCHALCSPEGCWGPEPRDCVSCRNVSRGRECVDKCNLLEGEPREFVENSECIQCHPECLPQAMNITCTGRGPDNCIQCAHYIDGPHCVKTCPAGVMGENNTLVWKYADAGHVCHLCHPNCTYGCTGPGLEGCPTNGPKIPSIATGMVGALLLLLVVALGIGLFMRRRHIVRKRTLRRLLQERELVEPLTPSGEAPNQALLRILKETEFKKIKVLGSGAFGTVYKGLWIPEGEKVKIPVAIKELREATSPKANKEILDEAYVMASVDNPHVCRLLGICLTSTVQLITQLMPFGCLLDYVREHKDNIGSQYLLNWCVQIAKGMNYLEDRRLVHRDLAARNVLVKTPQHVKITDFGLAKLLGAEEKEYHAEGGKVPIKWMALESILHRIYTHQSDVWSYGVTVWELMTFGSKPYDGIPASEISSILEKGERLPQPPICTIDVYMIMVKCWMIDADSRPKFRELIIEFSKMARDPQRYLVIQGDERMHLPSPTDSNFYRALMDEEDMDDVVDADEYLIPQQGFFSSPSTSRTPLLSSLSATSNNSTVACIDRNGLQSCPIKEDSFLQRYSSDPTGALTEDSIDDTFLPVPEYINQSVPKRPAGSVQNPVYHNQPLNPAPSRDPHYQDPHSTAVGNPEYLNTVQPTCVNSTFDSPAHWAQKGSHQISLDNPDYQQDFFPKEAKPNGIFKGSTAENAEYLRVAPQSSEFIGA
Chain of INSR (P06213 28-1382, species assumed): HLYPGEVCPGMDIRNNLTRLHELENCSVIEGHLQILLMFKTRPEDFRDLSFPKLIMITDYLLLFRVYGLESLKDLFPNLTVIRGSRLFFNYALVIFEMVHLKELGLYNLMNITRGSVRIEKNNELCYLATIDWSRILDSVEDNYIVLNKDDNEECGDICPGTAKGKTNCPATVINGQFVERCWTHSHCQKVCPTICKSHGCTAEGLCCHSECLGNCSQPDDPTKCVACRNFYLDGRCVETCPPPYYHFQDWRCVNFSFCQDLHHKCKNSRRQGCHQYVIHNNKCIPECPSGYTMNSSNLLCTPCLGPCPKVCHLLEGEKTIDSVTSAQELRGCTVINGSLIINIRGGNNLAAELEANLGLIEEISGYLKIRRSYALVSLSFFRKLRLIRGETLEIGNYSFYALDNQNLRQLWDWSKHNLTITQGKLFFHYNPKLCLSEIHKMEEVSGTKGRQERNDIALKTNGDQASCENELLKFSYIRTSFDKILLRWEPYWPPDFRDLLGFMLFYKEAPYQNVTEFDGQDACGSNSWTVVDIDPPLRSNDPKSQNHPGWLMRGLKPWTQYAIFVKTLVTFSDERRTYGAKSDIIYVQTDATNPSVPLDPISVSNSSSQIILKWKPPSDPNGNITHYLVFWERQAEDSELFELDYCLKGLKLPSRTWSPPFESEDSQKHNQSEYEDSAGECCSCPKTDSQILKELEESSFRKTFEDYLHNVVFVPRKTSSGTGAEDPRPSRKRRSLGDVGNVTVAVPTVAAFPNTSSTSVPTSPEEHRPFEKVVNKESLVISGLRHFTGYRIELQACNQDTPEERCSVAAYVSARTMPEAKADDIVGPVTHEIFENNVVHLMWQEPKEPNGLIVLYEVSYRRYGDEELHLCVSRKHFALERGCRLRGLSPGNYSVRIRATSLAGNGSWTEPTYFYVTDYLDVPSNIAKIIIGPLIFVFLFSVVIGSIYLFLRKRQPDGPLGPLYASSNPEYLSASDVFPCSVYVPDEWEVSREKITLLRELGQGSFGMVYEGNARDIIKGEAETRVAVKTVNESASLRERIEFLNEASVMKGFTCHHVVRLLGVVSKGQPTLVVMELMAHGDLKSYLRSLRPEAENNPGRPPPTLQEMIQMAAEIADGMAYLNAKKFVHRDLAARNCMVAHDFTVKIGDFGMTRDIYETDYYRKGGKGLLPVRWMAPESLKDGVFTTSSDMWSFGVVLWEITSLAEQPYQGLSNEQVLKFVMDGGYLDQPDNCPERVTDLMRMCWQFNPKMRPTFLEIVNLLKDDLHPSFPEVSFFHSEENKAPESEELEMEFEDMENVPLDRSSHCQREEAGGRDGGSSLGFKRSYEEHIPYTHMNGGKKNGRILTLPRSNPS

Compound | inhibition at 10 µM (AURKA (Aurora A)) | inhibition at 10 µM (EGFR (ErbB1)) | inhibition at 10 µM (KIT) | inhibition at 10 µM (EPHA2) | inhibition at 10 µM (PIM1) | inhibition at 10 µM (FLT3) | inhibition at 10 µM (INSR)
Nc1ncnc2c1ncn2[C@@H]1O[C@H](COC(=O)NCCCc2nc3ccccc3[nH]2)[C@@H](O)[C@H]1O [Compound C1] | 9% | 34% | 10% | 8% | -2% | 6% | 0%
Nc1ncnc2c1ncn2[C@@H]1O[C@H](COC(=O)N2CCN(CCc3ccccc3)CC2)[C@@H](O)[C@H]1O [Compound C26] | 1% | 13% | 6% | -1% | -5% | 18% | 2%
CS(=O)(=O)N1CC2(CCN(C(=O)OC[C@H]3O[C@@H](n4cnc5c(N)ncnc54)[C@H](O)[C@@H]3O)CC2)c2ccccc21 [Compound C98] | 0% | 5% | 20% | 5% | 6% | 13% | -2%
Nc1ncnc2c1ncn2[C@@H]1O[C@H](COC(=O)N2CCC(Cc3ccc(F)cc3)C2)[C@@H](O)[C@H]1O (stereo partly shown) [Compound C66] | 4% | 31% | -7% | 9% | 7% | 20% | -5%
Nc1ncnc2c1ncn2[C@@H]1O[C@H](COC(=O)N2CCN(Cc3ccccc3)CC2CO)[C@@H](O)[C@H]1O (stereo partly shown) [Compound C13] | -1% | 8% | 18% | 3% | 1% | 12% | -3%
Nc1ncnc2c1ncn2[C@@H]1O[C@H](COC(=O)N2CCN(C(=O)N3CCOCC3)CC2)[C@@H](O)[C@H]1O [Compound C89] | -7% | 28% | -16% | 6% | -4% | 10% | 0%
C[C@@H](NC(=O)OC[C@H]1O[C@@H](n2cnc3c(N)ncnc32)[C@H](O)[C@@H]1O)c1ccc(Cl)cc1 [Compound C4] | 8% | 22% | 20% | 4% | -8% | 19% | 5%

Continued, values first:

inhibition at 10 µM (AURKA (Aurora A)) | inhibition at 10 µM (EGFR (ErbB1)) | inhibition at 10 µM (KIT) | inhibition at 10 µM (EPHA2) | inhibition at 10 µM (PIM1) | inhibition at 10 µM (FLT3) | inhibition at 10 µM (INSR) | Compound
5% | 11% | 3% | 1% | -6% | 9% | -5% | Nc1ncnc2c1ncn2[C@@H]1O[C@H](COC(=O)NCCN2CCCC2=O)[C@@H](O)[C@H]1O [Compound C22]
-5% | -2% | -3% | 5% | 3% | 8% | 4% | Nc1ncnc2c1ncn2[C@@H]1O[C@H](COC(=O)N2CCC[C@H]2CO)[C@@H](O)[C@H]1O [Compound C9]
-7% | 8% | -9% | 4% | -1% | 9% | -2% | Nc1ncnc2c1ncn2[C@@H]1O[C@H](COC(=O)N2CCS(=O)(=O)CC2)[C@@H](O)[C@H]1O [Compound C100]
-11% | 20% | 10% | 4% | 0% | 12% | 3% | CN(C)CCNC(=O)OC[C@H]1O[C@@H](n2cnc3c(N)ncnc32)[C@H](O)[C@@H]1O [Compound C85]
-1% | -1% | 12% | 4% | 5% | 7% | -2% | N#CCCN1CCN(C(=O)OC[C@H]2O[C@@H](n3cnc4c(N)ncnc43)[C@H](O)[C@@H]2O)CC1 [Compound C70]
6% | 17% | -1% | 7% | -7% | 23% | 0% | CC(C)N1CCC(NC(=O)OC[C@H]2O[C@@H](n3cnc4c(N)ncnc43)[C@H](O)[C@@H]2O)CC1 [Compound C19]
-1% | 27% | 7% | 9% | 1% | 13% | 3% | Nc1ncnc2c1ncn2[C@@H]1O[C@H](COC(=O)N[C@@H]2CCN(Cc3ccccc3)C2)[C@@H](O)[C@H]1O [Compound C10]
3% | 14% | 6% | 3% | 8% | 10% | 0% | CN1CCN(CCNC(=O)OC[C@H]2O[C@@H](n3cnc4c(N)ncnc43)[C@H](O)[C@@H]2O)CC1 [Compound C46]
-7% | 14% | 28% | 12% | 11% | 12% | 2% | Nc1ncnc2c1ncn2[C@@H]1O[C@H](COC(=O)NC[C@H](O)CO)[C@@H](O)[C@H]1O [Compound C8]
